Values joined by “and” are separate entries in the source; they are usually repeats but may differ in a detail not shown here. Identical values can stand only once. “Also recorded” adds a separate entry of the source. Where no end group is shown, it is not given here.
B1: GnRH-II: neuropeptide (peptide, UniProt O43555 24-120, looked up)
Progonadoliberin-2: QHWSHGWYPGGKRALSSAQDPQNALRPPGRALDTAAGSPVQTAHGLPSDALAPLDDSMPWEGRTTAQWSLHRKRHLARTLLTAAREPRPAPPSSNKV
modifications: Progonadoliberin-2
notes: neuropeptide

Legend:
[1] = system: PD-1 expressing large proliferating CD3+ normal human T cells; assay: PD-1 expression on large proliferating T cells (FSC/SSC gating), 1 Hr treatment; format: cell-based; details: 10^−8M; for % reduction in % of large T cells expressing PD-1: vs untreated
Experimental: (§1) Peripheral blood lymphocytes (PBLs) were separated from normal human leukocytes of healthy donors by Ficol separation and CD3 positive T cells were separated by anti-CD3 antibody-coupled magnetic beads. The CD3+ T cells were cultured in RPMI 1640 medium supplemented with 10% heat inactivated fetal calf serum (FCS), 1% L-Glutamine, 1% sodium pyruvate, 1% non-essential amino acids, and 1% antibiotics. The cells were usually maintained for, for on average 24 hours after their separation before various molecules were added and their effects on the T cells were measured. […] It was therefore tested if neurotransmitters, neuropeptides, and/or modulators of voltage-gated ion channels can reduce PD-1 on the cell surface of T cells. Such a reduction would allow the T cells to escape the tumor-induced T cell suppression, and the activated T cells could then attach the cancer cells. As such, the expression of PD-1 on the surface of these treated and untreated T cells was monitored. […] Shorter in vitro incubation times are frequently preferable when cells are going to subsequently be returned to a subject, as they end to decrease the risk of an adverse reaction.
(§2) CD3 positive T cells of patients are a heterogenous mix of different types of T cells. […] Using this FCS and SSC analysis, T cells can be distinguished and separated by size into large proliferating T cells and smaller non-proliferating T cells.

[2] = system: PD-1 expressing smaller non-proliferating CD3+ normal human T cells; assay: PD-1 expression on smaller non-proliferating T cells (FSC/SSC gating), 1 Hr treatment; format: cell-based; details: 10−8M; for % reduction in % of smaller T cells expressing PD-1: vs untreated
Experimental: as §1, §2

[3] = system: PD-1 expressing CD3+ normal human T cells; assay: PD-1 surface expression on CD3+ T cells of healthy donors after treatment (1, 18, 24 Hr); format: cell-based; details: for % reduction in % of T cells expressing PD-1: vs untreated; for effect on PD-1 expressing T cells: incubated for 24 hours
Experimental: as §1

[4] = system: CD3+ T cells of liver cancer patients; assay: Proliferation / big proliferating T cells / CD25 of CD3+ T cells of liver cancer patients; format: cell-based, human; parameters: % big/activated/proliferating T cells: concentration or dose not given beside the values; details: for % big/activated/proliferating T cells / Fold increase (big/activated/proliferating T cells): T cells of liver cancer patient one; for % big/activated/proliferating T cells: 60 hours culture; for Fold increase (big/activated/proliferating T cells): vs untreated; for number of T cells present in culture (FIG. 1) / increase in the number of big, proliferating CD3 positive cells (ranking in words): patient one; for number of T cells present in culture (FIG. 1): 60 hours after administration; for increase in the number of big, proliferating CD3 positive cells (ranking in words): flow cytometer
Experimental: Blood was drawn from two patients suffering from liver cancer, patient one and patient two who both suffer from hepatocellular carcinoma. 15 mLs of blood yielded roughly 2.5×10^7 peripheral blood leucocytes, from which approximately […] positive T cells were isolated. The cells were cultured as described above, and the effects of various molecules and their combinations on those T cells were examined.
Cell proliferation was monitored in culture for 60 hours after administration of the molecule/s (FIG. 1).

Molecule | % of large T cells expressing PD-1 [1] [%] | % reduction in % of large T cells expressing PD-1 [1] [%] | % of smaller T cells expressing PD-1 [2] [%] | % reduction in % of smaller T cells expressing PD-1 [2] [%] | % of T cells expressing PD-1 ([3]; 1 Hr treatment, 10^−8M) [%] | % reduction in % of T cells expressing PD-1 ([3]; 1 Hr treatment, 10^−8M) [%] | % of T cells expressing PD-1 ([3]; 18 Hr treatment, 10^−7M) [%] | % reduction in % of T cells expressing PD-1 ([3]; 18 Hr treatment, 10^−7M) [%] | % of T cells expressing PD-1 ([3]; 24 Hr treatment, 10^−7M) [%] | % reduction in % of T cells expressing PD-1 ([3]; 24 Hr treatment, 10^−7M) [%] | % of T cells expressing PD-1 ([3]; 24 Hr treatment, 10^−8M) | % reduction in % of T cells expressing PD-1 ([3]; 24 Hr treatment, 10^−8M) [%] | effect on PD-1 expressing T cells [3] | % big/activated/proliferating T cells [4] [%] | Fold increase (big/activated/proliferating T cells) [4] | number of T cells present in culture (FIG. 1) [4] | increase in the number of big, proliferating CD3 positive cells (ranking in words) [4] | reduction of PD-1 surface expression level and of number of PD-1 expressing T cells ([3]; 1, 18 or 24 hours treatment) | surface expression of CD25 (FIG. 2D) ([4]; T cells of patient one)
NCCc1ccc(O)c(O)c1 [Dopamine] | 19.1 | 11.2 | 40.4 | 8.0 | 30.3 | 17 | 24.90 | 28.40 | 10 | 51.05 | 22.4% | −9.64 | did not have a positive effect | 14 | 3-fold | increased the number of T cells present in culture; also recorded: most effective |  |  | 
N[C@@H](CCC(=O)O)C(=O)O [Glutamate] | 13.0 | 39.5 | 32.8 | 25.3 | 24.65 | 33 | 23.70 | 31.7 | 15.8 | 22.64 | 16.3% | 20.2 |  | 24.80 | 5.4-fold | increased the number of T cells present in culture; also recorded: most effective | most effective |  | 
Cc1cccc(C(=O)NCN2CCN(c3ccccc3C#N)CC2)c1 [PD168077] | 15.6 | 27.4 | 40.3 | 8.2 | 15.1 | 59 | 24 | 30.84 | 5.3 | 74.05 |  |  |  |  |  |  |  | greatest reduction in mean percentage of PD-1 expressing T cells after 24 hours of treatment | 
CCCN1CCO[C@@H]2c3cc(O)ccc3OC[C@H]21 [PD 128907] | 16.1 | 25.1 | 38.4 | 12.5 | 26.15 | 29 | 27.25 | 21.47 | 13.6 | 33.41 | 16.3% and 10.7% | 47.61 |  |  |  |  |  |  | 
Oc1cc2c(cc1O)C(c1ccccc1)CNCC2 (stereo not shown) [SKF38393] | 15.6 | 27.4 | 36.7 | 16.4 | 26.2 | 28 | 26.40 | 23.90 | 21.8 | -6.73 | 20.3% | 0.61 | did not have a positive effect |  |  |  |  |  | 
CN[C@@H]1Cc2cccc3[nH]c(=O)n(c23)C1 [Sumanirole] | 13.6 | 36.7 | 36.2 | 17.5 | 25.65 | 30 | 26.15 | 24.64 | 16.4 | 19.71 | 16% | 21.66 |  |  |  |  |  |  | 
CGRP | 16.5 | 23.3 | 35.9 | 18.2 |  |  |  |  |  |  |  |  |  | 19.20 | 4.3-fold | increased the number of T cells present in culture |  |  | 
GnRH-I: neuropeptide (QHWSYGLRPG; ends and bridges not checked; UniProt P01148 24-33, looked up) | 16.1 | 25.1 | 36.6 | 16.6 | 34.27 | 6 |  |  |  |  |  |  |  |  |  |  |  |  | 
Neuropeptide Y: neuropeptide |  |  |  |  |  |  |  |  |  |  |  |  |  | 16.40 | 3.6-fold | increased the number of T cells present in culture |  |  | 
B1 | 9.5 | 55.8 |  |  | 31.6 | 14 |  |  |  |  |  |  |  |  |  | increased the number of T cells present in culture | most effective |  | increased the surface expression of CD25
